This passage reports TGI results from PubChem BioAssay (NCI).

Structures are written as SMILES.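 These data come from cells grown in 96-well plates and exposed to compound for 48 hours at five concentrations. TGI is the concentration that stops growth completely.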 A value given as a limit tells only on which side of the number the result lay.

Test systems include A498 renal; A549 NSCLC; CAKI-1 renal; COLO 205 colon; EKVX NSCLC; HCC-2998 colon; HL-60(TB) leukemia; K-562 leukemia; NCI-H460 lung; NCI/ADR-RES ovarian; OVCAR-4 ovarian; OVCAR-8 ovarian; PC-3 prostate; SF-268 CNS; SF-295 CNS; SF-539 CNS; SK-MEL-5 melanoma; SK-OV-3 ovarian; SNB-75 CNS; UACC-257 melanoma.
Holding throughout (assay): NCI-60 cell line screen, 48 h

With `CC1OC(OC2C(CO)OC(O[C@H]3CC[C@@]4(C)C(=CC[C@H]5[C@@H]6C[C@@H]7O[C@](O)(CC[C@H](C)COC8OC(CO)C(O)C(O)C8O)[C@@H](C)[C@@H]7[C@@]6(C)CC[C@@H]54)C3)C(OC3OC(C)C(O)C(O)C3O)C2O)C(O)C(O)C1O` (stereo not given in full), the TGI in the assay with A498 renal is over 100 µM; in the assay on A549 NSCLC it was 5.55 µM; with CAKI-1 renal it was 3.61 µM; in the assay with COLO 205 colon, over 35.5 µM; with EKVX NSCLC, over 100 µM; in the assay with HCC-2998 colon it was over 37.9 µM. Further, the TGI with HL-60(TB) leukemia is over 100 µM; with K-562 leukemia, over 33.4 µM; with NCI-H460 lung, over 45.7 µM; in the assay on NCI/ADR-RES ovarian, 18.4 µM; in the assay with OVCAR-4 ovarian it was 28.8 µM; with OVCAR-8 ovarian, 28.9 µM. Besides, the TGI was 15.9 µM in the assay with PC-3 prostate; 11.5 µM with SF-268 CNS; 23.1 µM in the assay on SF-295 CNS; over 21.6 µM with SF-539 CNS; over 32.8 µM with SK-MEL-5 melanoma; 6.12 µM in the assay on SK-OV-3 ovarian. The TGI in the assay on SNB-75 CNS was 4.78 µM; with UACC-257 melanoma, over 49.9 µM.

With `Cc1ccc2c(c1)C(C1Cc3cccc(C)c3C1=O)OC2=O` (stereo not given), the TGI in the assay with A498 renal, with A549 NSCLC, with CAKI-1 renal, in the assay on COLO 205 colon, with EKVX NSCLC and in the assay with HCC-2998 colon was over 100 µM throughout. Also, the TGI in the assay with HL-60(TB) leukemia, with K-562 leukemia, with NCI-H460 lung, with NCI/ADR-RES ovarian, in the assay on OVCAR-4 ovarian and in the assay with OVCAR-8 ovarian was over 100 µM each time. The TGI in the assay with PC-3 prostate, in the assay with SF-268 CNS, in the assay with SF-295 CNS, with SF-539 CNS, in the assay on SK-MEL-5 melanoma and in the assay on SK-OV-3 ovarian was over 100 µM throughout. The TGI in the assay on SNB-75 CNS and in the assay on UACC-257 melanoma was over 100 µM in each case.

Regarding `CCOC(=O)c1[nH]cc(C)c1-c1c[nH]c2ccccc12`, the TGI in the assay on A498 renal is over 100 µM; in the assay with A549 NSCLC, over 100 µM; with CAKI-1 renal, over 100 µM; in the assay on COLO 205 colon, 58.9 µM; with EKVX NSCLC, over 100 µM; in the assay on HCC-2998 colon, over 100 µM. In addition, the TGI with HL-60(TB) leukemia is over 100 µM; with K-562 leukemia, over 80.4 µM; with NCI-H460 lung it was over 87.5 µM; in the assay on NCI/ADR-RES ovarian, 72.5 µM; in the assay with OVCAR-4 ovarian it was over 100 µM; in the assay with OVCAR-8 ovarian it was over 100 µM. Further, the TGI is over 82.7 µM in the assay with PC-3 prostate; over 100 µM with SF-268 CNS; over 93 µM in the assay on SF-295 CNS; over 100 µM in the assay on SF-539 CNS; 34.5 µM in the assay on SK-MEL-5 melanoma; over 100 µM with SK-OV-3 ovarian. Further, the TGI with SNB-75 CNS was 90.7 µM; in the assay on UACC-257 melanoma, over 100 µM.

Take `Clc1ccc(C2=C(c3ccccc3)C(c3ccc(Cl)cc3)N3C(=N[C@H]4CCCC[C@@H]43)N2)cc1` (stereo not given in full): the TGI in the assay on A498 renal amounted to 31.1 µM; in the assay on A549 NSCLC, 24.4 µM; with CAKI-1 renal, 30.1 µM; in the assay on COLO 205 colon it was 19.4 µM; in the assay with EKVX NSCLC, 24.8 µM; in the assay on HCC-2998 colon, 10.4 µM. Also, the TGI with HL-60(TB) leukemia came to 10.9 µM; in the assay on K-562 leukemia, 7.98 µM; with NCI-H460 lung it was 11.1 µM; in the assay with NCI/ADR-RES ovarian, 28.1 µM; in the assay with OVCAR-4 ovarian, 21.4 µM; in the assay on OVCAR-8 ovarian, 29.5 µM. Moreover, the TGI in the assay on PC-3 prostate came out at 21.8 µM; in the assay on SF-268 CNS, 44.8 µM; with SF-295 CNS it was 23.8 µM; in the assay with SF-539 CNS it was 29.7 µM; in the assay on SK-MEL-5 melanoma, 24.8 µM; with SK-OV-3 ovarian, 30.8 µM. Moreover, the results for the TGI with SNB-75 CNS and with UACC-257 melanoma were 30 µM and 32.2 µM, respectively.

As to `O=[N+]([O-])c1cc(-c2nnc(C34CC5CC(CC(C5)C3)C4)o2)cc([N+](=O)[O-])c1`, the TGI in the assay on A498 renal is over 100 µM; in the assay with A549 NSCLC, over 100 µM; with CAKI-1 renal, over 100 µM; in the assay with COLO 205 colon, 42.4 µM; in the assay with EKVX NSCLC it was over 100 µM; in the assay with HCC-2998 colon it was over 100 µM. Moreover, the TGI with HL-60(TB) leukemia, in the assay on K-562 leukemia, with NCI-H460 lung, with NCI/ADR-RES ovarian, in the assay on OVCAR-4 ovarian and in the assay on OVCAR-8 ovarian was over 100 µM throughout. Further, the TGI in the assay with PC-3 prostate is over 100 µM; in the assay with SF-268 CNS it was over 100 µM; in the assay on SF-295 CNS, over 100 µM; with SF-539 CNS, over 100 µM; in the assay on SK-MEL-5 melanoma it was 44.8 µM; in the assay on SK-OV-3 ovarian, over 100 µM. Moreover, the TGI in the assay with SNB-75 CNS and with UACC-257 melanoma was over 100 µM throughout.

Consider `CCOC(=O)N1CCN(c2nc(C)n(-c3ccccc3)c(=S)c2C#N)CC1`, for which the TGI with A498 renal, in the assay on A549 NSCLC, in the assay with CAKI-1 renal, in the assay on COLO 205 colon, with EKVX NSCLC and in the assay on HCC-2998 colon was over 100 µM throughout. In addition, the TGI was over 66.7 µM in the assay with HL-60(TB) leukemia; over 100 µM in the assay with K-562 leukemia; over 100 µM in the assay with NCI-H460 lung; over 100 µM with NCI/ADR-RES ovarian; over 100 µM with OVCAR-4 ovarian; over 100 µM with OVCAR-8 ovarian. Besides, the TGI with PC-3 prostate, with SF-268 CNS, with SF-295 CNS, in the assay on SF-539 CNS, in the assay with SK-MEL-5 melanoma and with SK-OV-3 ovarian was over 100 µM each time. In addition, the figures for the TGI with SNB-75 CNS and with UACC-257 melanoma were over 79.7 µM and over 100 µM, respectively.

Take `NC(=NCCN1CCCCCCC1)NO`: the TGI with A498 renal, in the assay with A549 NSCLC, with CAKI-1 renal, in the assay with COLO 205 colon, in the assay on EKVX NSCLC and with HCC-2998 colon was over 100 µM each time. In addition, the TGI in the assay on HL-60(TB) leukemia, in the assay with K-562 leukemia, in the assay on NCI-H460 lung, in the assay on NCI/ADR-RES ovarian, in the assay with OVCAR-4 ovarian and in the assay on OVCAR-8 ovarian was over 100 µM in each case. For the same molecule, the TGI with PC-3 prostate, in the assay on SF-268 CNS, in the assay on SF-295 CNS, in the assay on SF-539 CNS, in the assay on SK-MEL-5 melanoma and in the assay on SK-OV-3 ovarian was over 100 µM in each case. Further, the TGI with SNB-75 CNS and in the assay on UACC-257 melanoma was over 100 µM each time.
